SMILES strings stand for the structures. Where “and” joins values, the source holds several entries; their conditions need not be identical. Identical values can stand only once.

In the assay the test system is HIF1-a protein in L929 cells. The experiment in a line: In vitro HIF stabilization (HIF1-a ELISA, normalized to DNA content). The conditions noted are these: for level of HIF-1a compared to the negative control cells: alone, 0.01, 0.1, 1, 10 and 100 micromolar, L929 cells. It counts as cell-based. (An ELISA detects its analyte on a solid surface through an enzyme-linked reagent.)

As to `[Cl-].[Cl-].[Co+2]` [CoCl2], the “HIF content increase (normalized to the DNA content) compared to the negative control” value is 2.21 fold and 2.16 fold.

In the case of `O=c1cc(-c2ccccc2)oc2ccccc12` [Flavone, 2-phenylchromen-4-one], the “level of HIF-1a compared to the negative control cells” value was “either a decrease of HIF-1a or the same level of HIF-1a”. Same read-out and setting: the value for `O=c1c(-c2ccc(O)cc2)coc2c([C@@H]3O[C@H](CO)[C@@H](O)[C@H](O)[C@H]3O)c(O)ccc12` [Puerarin, 7-hydroxy-3-(4-hydroxyphenyl)-8-[(2S,3R,4R,5S,6R)-3,4,5-trihydroxy-6-(hydroxymethyl)oxan-2-yl]chromen-4-one] was “either a decrease of HIF-1a or the same level of HIF-1a”.

These data come from US20240285660A1, “COMPOSITION FOR WOUND RELIEF AND INHIBITING A PHD PROTEIN AND METHODS OF TREATMENT” (Curapep LLC, priority 2021, published 2024).
